The subject of one data set is SK-N-BE(2) cells. Kind of data set: Western blot of β-catenin and p53. It is filed as cell-based. To be noted: 1 μM NEN 24 and 48 hrs. As for the experimental part:
(§1) Protein extraction and immunoblot. Cells were washed with ice-cold PBS buffer (Invitrogen, 20012050) and lysed with harvest buffer (10 mM Hepes pH 7.9, 50 mM NaCl, 500 mM sucrose, 0.1 mM EDTA and 0.5% Trition X-100) supplemented with 1% Halt inhibitors (Thermo Scientific™, 78443) for 10 minutes. Cell lysate was centrifuged at 3000 rpm for 3 min at 4° C. The supernatant containing cytosolic proteins was transferred to a different tube. The pellet containing nuclear proteins was dissolved with nuclear lysis buffer (10 mM Hepes pH 7.9, 0.5M NaCl, 0.1 mM EDTA, 0.1 mM EGTA and 0.1% NP40) supplemented with 1% Halt inhibitors (Thermo Scientific™, 78443) for 5 minutes at 4° C. Then the solution was sonicated at 4° C. for 6 cycles (1 cycle=30 s sonication and 30 s cooldown with “High” energy intensity) using a Bioruptor® Plus sonication (Diagenode, UCD-300). After sonication, the solution was centrifuged at 15,000 rpm for 10 minutes. The supernatant was kept as nuclear extraction. Protein concentration was determined by BCA assay (Thermo Scientific, 23227). 5 μg nuclear proteins or 7.5 μg cytosolic proteins were boiled in loading buffer with reducing reagents (Invitrogen, NuPAGE™ LDS Sample Buffer (4X), NP0007), then separated with SDS-PAGE (Nupage™ 4-12% Bis-Tris Protein Gels, 1.0 mm, Invitrogen™, NP0322BOX). Protein was transferred onto a nitrocellulose membrane (Thermo Scientific™, 88018). After blocking in 5% non-fat milk for 30 minutes at room temperature (RT), the primary antibody was added for incubation overnight at 4° C. After washing with TBST (CST, #9997, 1:10 diluted by deionized water) for 3 times, HRP-conjugated secondary antibodies were applied. Signals were detected with an ECL kit (Thermo Scientific™, 34577) by using BioRad Universal Hood II.
For orientation: In western blotting, separated proteins are transferred to a membrane and probed.

The subject of another data set is NB16 cells. Kind of data set: Western blot of β-catenin and p53. It is filed as cell-based. Particulars: NB16, 1 μM NEN 24 and 48 hrs. As for the experimental part:
as §1

A short description of data set [1]: Plasma and tissue NEN levels under dietary NEN supplementation (LC/MS). Format: in vivo. To be noted: mice, diet that contains 2000 ppm NEN. Here is the method:
Metabolic analysis. For the metabolomics and isotope tracing analysis in vitro, cells were washed with cold PBS, lysed in 80% Ultra LC-MS acetonitrile on ice for 15 minutes, centrifuged at 20,000 g for 10 minutes at 4° C., and supernatant was subjected to mass spectrometry analysis. For the metabolomics analysis in vivo, 10-20 mg tissue were cut off on ice, rinsed if necessary to remove blood, and place in a 2 ml round-bottom cryovial. The tissues were homogenized by 3 times 10 s on/off bursts homogenization in 1 ml 80% methanol on dry ice. Transfer the homogenate to an Eppendorf tube and keep on liquid nitrogen while processing the remaining samples. Incubated all the samples in −80° C. for 30 minutes. After incubation, vortexed the samples for 5 seconds. Then centrifuged the samples at 20,000 g for 10 minutes at 4° C., and supernatant was subjected to mass spectrometry analysis. Resuspend the remaining cellular pellet in 100 ul protein lysis buffer and determine the protein concentration. Then calculate the total protein content per sample.
Liquid chromatography was performed using an Agilent 1290 Infinity LC system (Agilent, Santa Clara, US) coupled to a Q-TOF 6545 mass spectrometer (Agilent, Santa Clara, US). […]
Mouse orthotopic neuroblastoma model. […] Tumor formation was monitored by non-invasive ultrasound measurements, and the animals euthanized when the tumor volume exceeded 1,000 mm^3.

Take `O=C(Nc1ccc([N+](=O)[O-])cc1Cl)c1cc(Cl)ccc1O` [NEN, 5-chloro-N-(2-chloro-4-nitrophenyl)-2-hydroxybenzamide compound with 2-aminoethanol (1:1)]: the “expression of p53” value in the data set on SK-N-BE(2) cells and in the data set on NB16 cells was “increased” throughout. Further, the “expression of β-catenin (nuclear protein)” value in the data set on SK-N-BE(2) cells and with NB16 cells was “reduced” in each case. Further, in data set [1], the “NEN accumulation in plasma” value was in the range of 1 to 3 µM.

(Values after patent publication US11918550B2, “Sensitization of cancer cells to differentiation therapy with mitochondrial uncoupler niclosamide ethanolamine” (The Board of Trustees of the Leland Stanford Junior …, priority 2020, dated 2024).)
